A short description of the experiment: Cell-Based Assay of NHE-3 Activity: Rat NHE-3-mediated Na+-dependent H+ antiport was measured using a modification of the pH sensitive dye method originally reported by Tsien (Proc. Natl. Acad. Sci. USA. (1984) 81(23): 7436-7440). Opossum kidney (OK) cells were obtained from the ATCC and propagated per their instructions. The rat NHE-3 gene was introduced into OK cells via electroporation, seeded into 96 well plates and grown overnight. Medium was aspirated from the wells, cells were washed twice with NaCl-HEPES buffer (100 mM NaCl, 50 mM HEPES, 10 mM glucose, 5 mM KCl, 2 mM CaCl2, 1 mM MgCl2, pH 7.4), then incubated for 30 min at room temperature with NH4Cl-HEPES buffer (20 mM NH4Cl, 80 mM NaCl, 50 mM HEPES, 5 mM KCl, 2 mM CaCl2, 1 mM MgCl2, pH 7.4) containing 5 uM BCECF-AM (Invitrogen). Cells were washed twice with Ammonium free, Na+-free HEPES (100 mM choline, 50 mM HEPES, 10 mM glucose, 5 mM KCl, 2 mM CaCl2, 1 mM MgCl2, pH 7.4) and incubated in the same buffer for 10 minutes at room temperature to lower intracellular pH. […] Initial rates were plotted as the average 3-6 replicates, and pIC50 values were estimated using GraphPad Prism.

Usually IC50 stands for the concentration at which inhibition is half-maximal.

As for `CN1Cc2c(Cl)cc(Cl)cc2C(c2ccc(S(=O)(=O)NCCOCCOCCNC(=O)c3ccc(C(=O)NCCOCCOCCNS(=O)(=O)c4ccc(C5CN(C)Cc6c(Cl)cc(Cl)cc65)cc4)cc3)cc2)C1` (configuration not stated), the IC50 is under 10000 nM.

As to `CN1Cc2c(Cl)cc(Cl)cc2C(c2ccc(S(=O)(=O)NCCOCCOCCOCCNC(=O)c3ccc(C(=O)NCCOCCOCCOCCNS(=O)(=O)c4ccc(C5CN(C)Cc6c(Cl)cc(Cl)cc65)cc4)cc3)cc2)C1` (configuration not stated), the IC50 is under 10000 nM.

In the case of `CN1Cc2c(Cl)cc(Cl)cc2C(c2cccc(S(=O)(=O)NCCOCCOCCOCCNC(=O)CCCCCCC(=O)NCCOCCOCCOCCNS(=O)(=O)c3cccc(C4CN(C)Cc5c(Cl)cc(Cl)cc54)c3)c2)C1` (configuration not stated), the IC50 entry was “in the range around 316 nM”.

Turning to `C/C(=C\c1cc(F)c(Oc2ccc(S(=O)(=O)NCCCP(=O)(O)O)cc2)c(F)c1)C(=O)N=C(N)N`, the IC50 result is “in the range around 3160 nM”.

For `CN1Cc2c(Cl)cc(Cl)cc2[C@H](c2ccc(S(=O)(=O)NCCOCCOCCOCCNC(=O)NCCCCNC(=O)NCCOCCOCCOCCNS(=O)(=O)c3ccc([C@@H]4CN(C)Cc5c(Cl)cc(Cl)cc54)cc3)cc2)C1` (single isomer, unassigned), the IC50 was under 100 nM.

Regarding `CN1Cc2c(Cl)cc(Cl)cc2C(c2ccc(S(=O)(=O)NCCOCCOCCOCCNC(=O)C(O)C(O)C(=O)NCCOCCOCCOCCNS(=O)(=O)c3ccc(C4CN(C)Cc5c(Cl)cc(Cl)cc54)cc3)cc2)C1` (configuration not stated), the IC50 was under 100 nM.

Consider `CN1Cc2c(Cl)cc(Cl)cc2C(c2cccc(S(=O)(=O)NCCOCCOCCOCCNC(=O)CN(CC(=O)NCCOCCOCCOCCNS(=O)(=O)c3cccc(C4CN(C)Cc5c(Cl)cc(Cl)cc54)c3)CC(=O)NCCOCCOCCOCCNS(=O)(=O)c3cccc(C4CN(C)Cc5c(Cl)cc(Cl)cc54)c3)c2)C1` (configuration not stated), for which the IC50 result was “in the range around 316 nM”.

Consider `CN1Cc2c(Cl)cc(Cl)cc2C(c2cccc(S(=O)(=O)NCCOCCOCCOCCn3cc(COCc4cn(CCOCCOCCOCCNS(=O)(=O)c5cccc(C6CN(C)Cc7c(Cl)cc(Cl)cc76)c5)nn4)nn3)c2)C1` (configuration not stated), for which the IC50 was under 100 nM.

For `CN1Cc2c(Cl)cc(Cl)cc2C(c2cccc(S(=O)(=O)NCCOCCOCCOCCNC(=O)NCCOCCOCCOCCNS(=O)(=O)c3cccc(C4CN(C)Cc5c(Cl)cc(Cl)cc54)c3)c2)C1` (configuration not stated), the IC50 result was “in the range around 316 nM”.

On to `CN1Cc2c(Cl)cc(Cl)cc2C(c2cccc(S(=O)(=O)NCCOCCOCCOCCNS(=O)(=O)c3cccc(S(=O)(=O)NCCOCCOCCOCCNS(=O)(=O)c4cccc(C5CN(C)Cc6c(Cl)cc(Cl)cc65)c4)c3)c2)C1` (configuration not stated), for which the IC50 entry is “in the range around 3160 nM”.

For the compound `C/C(=C\c1cc(F)c(Oc2ccc(S(=O)(=O)NCCOCCOCCOCCNC(=O)CCCCCCC(=O)NCCOCCOCCOCCNS(=O)(=O)c3ccc(Oc4c(F)cc(/C=C(\C)C(=O)N=C(N)N)cc4F)cc3)cc2)c(F)c1)C(=O)N=C(N)N`, the IC50 was under 100 nM.

Regarding `CN1Cc2c(Cl)cc(Cl)cc2C(c2cccc(S(=O)(=O)NCCOCCOCCNC(=O)CCC(=O)NCCOCCOCCNS(=O)(=O)c3cccc(C4CN(C)Cc5c(Cl)cc(Cl)cc54)c3)c2)C1` (configuration not stated), the IC50 was under 100 nM.

Consider `CN1Cc2c(Cl)cc(Cl)cc2C(c2cccc(S(=O)(=O)NCCOCCOCCNC(=O)c3ccc(C(=O)NCCOCCOCCNS(=O)(=O)c4cccc(C5CN(C)Cc6c(Cl)cc(Cl)cc65)c4)cc3)c2)C1` (configuration not stated), for which the IC50 entry was “in the range around 3160 nM”.

`NCCCN1CCN(c2cccc(-c3nc(N=C(N)N)nc4ccc(Cl)cc34)c2)CC1`: the IC50 result is “in the range around 316 nM”.

For the compound `CN1Cc2c(Cl)cc(Cl)cc2C(c2cccc(S(=O)(=O)NCCOCCOCCOCCNC(=O)c3cc(C(=O)NCCOCCOCCOCCNS(=O)(=O)c4cccc(C5CN(C)Cc6c(Cl)cc(Cl)cc65)c4)cc(C(=O)NCCOCCOCCOCCNS(=O)(=O)c4cccc(C5CN(C)Cc6c(Cl)cc(Cl)cc65)c4)c3)c2)C1` (configuration not stated), the IC50 was under 100 nM.

Regarding `C/C(=C\c1cc(F)c(Oc2ccc(S(=O)(=O)NCCOCCOCCOCCOCCOCCOCCN)cc2)c(F)c1)C(=O)N=C(N)N`, the IC50 entry was “in the range around 316 nM”.

As for `CN1Cc2c(Cl)cc(Cl)cc2C(c2ccc(S(=O)(=O)NCCOCCOCCNC(=O)NCCOCCOCCNS(=O)(=O)c3ccc(C4CN(C)Cc5c(Cl)cc(Cl)cc54)cc3)cc2)C1` (configuration not stated), the IC50 was under 10000 nM.

Values taken from ChEMBL document CHEMBL5727484, “Compounds and methods for inhibiting NHE-mediated antiport in the treatment of disorders associated with fluid retention or salt overload and gastrointestinal tract disorders” (2020).
